Here are results for 11 compounds from US20220402948A1, “EGFR INHIBITOR, COMPOSITION AND PREPARATION METHOD THEREFOR” (BETTA PHARMACEUTICALS CO., LTD., priority 2019, published 2022).

Where two headings read alike, the source gives them in different places.

For one experiment, the target named is EGFR WT (Homo sapiens, UniProt P00533). Nature of the experiment: EGFR WT kinase test (mobility variation analysis, Caliper EZ Reader). It counts as biochemical. The settings on record: kinase enzymatic activity, Table 1. On the procedure:
(§1) Mobility variation analysis was performed to determine the affinity of the compound for EGFRΔ19del/T790M/C797S, EGFR WT and IGF1R. The enzymatic reaction scheme is as follows:
(§2) 1. Prepare 1*kinase buffer as follows.
(§3) 3. […] Prepare 2.5-fold final concentration of kinase solution with 1×Kinase buffer.
(§4) 4. Add 10 μL of 2.5-fold final concentration of kinase solution to the compound well and the positive control well; add 10 μL of 1×Kinase buffer to the negative control well.
(§5) 5. Centrifuge at 1000 rpm for 30 s, shake the reaction plate for well mixing, and then incubate at room temperature for 10 minutes.
(§6) 6. Prepare a mixture of ATP and Kinase substrate at 5/3-fold final concentration with 1×Kinase buffer.
(§7) 8. Centrifuge the 384-well plate at 1000 rpm for 30 s, shake it well and then incubate it at room temperature for corresponding time.
(§8) 9. Add 30 μL of stop detection solution to stop the kinase reaction, centrifuge at 1000 rpm for 30 s, and shake it well.
(§9) 10. Read conversion rate with Caliper EZ Reader.
(§10) % Inhibition=((Conversion%_max−Conversion%_sample)/(Conversion%_max−Conversion%_min))*100
(§11) Wherein: Conversion%_sample is the sample conversion rate reading; Conversion%_min: Mean value of negative control wells, representing the conversion rate reading of wells without enzymatic activity; Conversion%_max: Mean value of positive control wells, representing the conversion rate reading of wells without compound inhibition.
(§12) The dose-effect curve was fitted with concentration log value as X-axis and percentage inhibition rate as Y-axis. GraphPad Prism 5 analysis software was used for fitting Log (inhibitor) vs. response—Variable slope with the dose-effect curve to obtain IC50 value of enzymatic activity for each compound.
(§13) The calculation formula is as Y-Bottom+(Top-Bottom)/(1+10^((Log IC50−X)*HillSlope)).

The target in experiment [1] is Ba/F3 cells with EGFR Δ19del/T790M/C797S mutation gene stably overexpressed (Homo sapiens, UniProt P00533, T790M/C797S, cells depend on it, form not given). The experiment can be described thus: Ba/F3-Δ19del/T790M/C797S cell proliferation assay (CellTiter Glo, 72 hours). It counts as cell-based. The note with it: Table 2, read-out: EGFR Δ19del/T790M/C797S IC50. On the procedure: (§14) Cell line: Ba/F3 cells with EGFR Δ19del/T790M/C797S mutation gene stably overexpressed named Ba/F3-Δ119del/T90M/C797S, and A431 and Ba/F3-EGFR wild-type cell line.
Chain of Ba/F3 cells with EGFR Δ19del/T790M/C797S mutation gene stably overexpressed (P00533 with tags, fused parts or gaps DEL746-750/T790M/C797S, form open): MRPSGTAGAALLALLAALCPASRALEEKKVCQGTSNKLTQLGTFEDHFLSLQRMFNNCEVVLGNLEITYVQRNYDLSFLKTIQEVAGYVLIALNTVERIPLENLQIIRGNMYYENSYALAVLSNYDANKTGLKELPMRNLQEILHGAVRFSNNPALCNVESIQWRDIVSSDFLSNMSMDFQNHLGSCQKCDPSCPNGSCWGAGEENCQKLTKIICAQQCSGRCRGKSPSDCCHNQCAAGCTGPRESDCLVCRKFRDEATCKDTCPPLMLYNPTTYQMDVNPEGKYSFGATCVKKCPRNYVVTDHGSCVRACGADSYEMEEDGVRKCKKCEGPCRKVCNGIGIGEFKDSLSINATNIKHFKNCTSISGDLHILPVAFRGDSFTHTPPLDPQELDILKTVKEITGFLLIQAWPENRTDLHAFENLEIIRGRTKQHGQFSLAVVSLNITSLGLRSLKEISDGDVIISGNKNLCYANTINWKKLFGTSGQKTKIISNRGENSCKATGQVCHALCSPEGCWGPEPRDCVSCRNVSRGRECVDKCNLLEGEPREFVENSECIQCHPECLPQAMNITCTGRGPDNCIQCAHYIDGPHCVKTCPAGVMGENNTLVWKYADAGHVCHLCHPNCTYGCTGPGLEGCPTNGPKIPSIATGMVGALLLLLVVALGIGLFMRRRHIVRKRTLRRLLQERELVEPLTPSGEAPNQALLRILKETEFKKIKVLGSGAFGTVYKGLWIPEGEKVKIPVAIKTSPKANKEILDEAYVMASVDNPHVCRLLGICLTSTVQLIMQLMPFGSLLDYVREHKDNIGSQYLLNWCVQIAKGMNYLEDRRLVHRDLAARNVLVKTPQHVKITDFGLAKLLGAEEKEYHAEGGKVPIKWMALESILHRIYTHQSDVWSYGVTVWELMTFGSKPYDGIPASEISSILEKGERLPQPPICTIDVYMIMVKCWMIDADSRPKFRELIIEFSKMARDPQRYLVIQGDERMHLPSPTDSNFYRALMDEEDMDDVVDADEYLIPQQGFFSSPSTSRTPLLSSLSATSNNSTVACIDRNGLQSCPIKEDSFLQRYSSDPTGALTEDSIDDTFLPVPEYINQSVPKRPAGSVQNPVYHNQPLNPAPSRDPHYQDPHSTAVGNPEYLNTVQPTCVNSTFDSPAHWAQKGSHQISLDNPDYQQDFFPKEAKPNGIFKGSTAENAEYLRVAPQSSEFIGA
(§15) a) Centrifuge the growth cells in logarithmic phase at 1000 rpm for 5 minutes, resuspend the cells in culture medium, and then count the cells;
(§16) b) Inoculate the cells into a 96-well cell culture plate with a density of 2000 cells/well;
(§17) b) Incubate cells in an incubator for another 72 hours.
(§18) a) Take out the 96-well cell culture plate and add 50 μl CTG reagent (CellTiter Glo kit, promega, Cat #G7573);
(§19) b) Shake the plate for 2 minutes and let cool at room temperature for 10 minutes;
(§20) c) Read luminous signal value with PerkinElmer reader,
(§21) Analysis of Experimental Data
(§22) The data were analyzed by GraphPad Prism 6.0 software to obtain the fitting curve of compound activity.
(§23) Y=Min+(Max−Min)/(1+10^((Log IC50−X)*slope));
(§24) X: Logarithm of compound concentration; Y: luminous signal.
For orientation: Cellular ATP, detected with luciferase, serves as a proxy for viable cell number.

The subject of a further experiment is A431. Nature of the experiment: A431 cell proliferation assay (CellTiter Glo, 72 hours). Type of experiment: cell-based. The note with it: cell proliferation, A431, 72 hours, Table 2, read-out: A431 IC50. On the procedure: as §14
RPMI 1640 and 10% FBS and 1% PS; DMEM and 10% FBS and 1% PS.
a) Dilute the test compound (20 mM stock solution) to 10 mM with 100% DMSO as the starting concentration, and then serially dilute 3 times with a “9+0” concentration in 96-well dilution plate (Cat #P-05525, Labcyte);
b) Dilute compound solution thereof to 1:100 (1:20 for comparative compound 1 and compounds 1-38) in medium to prepare 10-fold working solution;
as §15, §16
a) Compounds prepared at step 2 were added to cell plate with 15 μl per well, the final concentrations were 1000, 333, 111.1, 37, 12.3, 4.1, 1.4, 0.5, 0.2 and 0 nM, and the final concentration of DMSO was 0.1%. The blank control well was a culture medium (0.1% DMSO) (the blank control well of comparative compound 1 and compounds 1-38 was a culture medium (0.5% DMSO).
as §17, §18, §19, §20, §21, §22
Fitting compound IC50 from nonlinear regression equation:
as §23, §24

In a further experiment the target is IGF1R (Homo sapiens, UniProt P08069). The experiment can be described thus: IGF1R kinase test (mobility variation analysis, Caliper EZ Reader). Type of experiment: biochemical. The note with it: kinase enzymatic activity, Table 1; read-out: EGFR IGF1R IC50. On the procedure:
as §1, §2
2. Preparation of compound concentration gradient: The test compound was tested with an initial concentration of 3000 nM (300 nM for some triple mutations and 100 nM for others), diluted in a 384 source plate (96-well plate for comparative compound 1 and compounds 1-38) to a 100% DMSO solution with 100-fold final concentration, and the compound is 3-fold diluted with Precision to 10 concentrations. A dispenser Echo 550 was used to transfer 250 nL 100-fold final concentration of the compound to the target plate OptiPlate-384F.
3. Prepare 2.5-fold final concentration (5-fold for comparative compound 1 and compounds 1-38) of kinase solution with 1×Kinase buffer. Following steps should also be carried out for comparative compound 1 and compounds 1-38: Add each prepared intermediate dilution compounds to the compound wells of 384-well plate respectively, and test the repeated wells of each concentration; add 5% DMSO of 5 plates into the negative control well and the positive control well respectively. Prepare 2.5-fold final concentration of kinase solution with 1×Kinase buffer.
as §4, §5, §6
7. Add 15 μL mixture of 5/3-fold (2.5-fold for comparative compound 1 and compounds 1-38) final concentration of ATP and substrate to start reaction.
as §7, §8, §9, §10, §11, §12, §13

In the next experiment the target is EGFRΔ19del/T790M/C797S (Homo sapiens, UniProt P00533, T790M/C797S, form not given). The experiment can be described thus: EGFR Δ19del/T790M/C797S kinase test (mobility variation analysis, Caliper EZ Reader). It counts as biochemical. The settings on record: kinase enzymatic activity, Table 1. The method, then:
as §1, §2, §3, §4, §5, §6, §7, §8, §9, §10, §11, §12, §13

Chain of EGFR WT (P00533 25-1210): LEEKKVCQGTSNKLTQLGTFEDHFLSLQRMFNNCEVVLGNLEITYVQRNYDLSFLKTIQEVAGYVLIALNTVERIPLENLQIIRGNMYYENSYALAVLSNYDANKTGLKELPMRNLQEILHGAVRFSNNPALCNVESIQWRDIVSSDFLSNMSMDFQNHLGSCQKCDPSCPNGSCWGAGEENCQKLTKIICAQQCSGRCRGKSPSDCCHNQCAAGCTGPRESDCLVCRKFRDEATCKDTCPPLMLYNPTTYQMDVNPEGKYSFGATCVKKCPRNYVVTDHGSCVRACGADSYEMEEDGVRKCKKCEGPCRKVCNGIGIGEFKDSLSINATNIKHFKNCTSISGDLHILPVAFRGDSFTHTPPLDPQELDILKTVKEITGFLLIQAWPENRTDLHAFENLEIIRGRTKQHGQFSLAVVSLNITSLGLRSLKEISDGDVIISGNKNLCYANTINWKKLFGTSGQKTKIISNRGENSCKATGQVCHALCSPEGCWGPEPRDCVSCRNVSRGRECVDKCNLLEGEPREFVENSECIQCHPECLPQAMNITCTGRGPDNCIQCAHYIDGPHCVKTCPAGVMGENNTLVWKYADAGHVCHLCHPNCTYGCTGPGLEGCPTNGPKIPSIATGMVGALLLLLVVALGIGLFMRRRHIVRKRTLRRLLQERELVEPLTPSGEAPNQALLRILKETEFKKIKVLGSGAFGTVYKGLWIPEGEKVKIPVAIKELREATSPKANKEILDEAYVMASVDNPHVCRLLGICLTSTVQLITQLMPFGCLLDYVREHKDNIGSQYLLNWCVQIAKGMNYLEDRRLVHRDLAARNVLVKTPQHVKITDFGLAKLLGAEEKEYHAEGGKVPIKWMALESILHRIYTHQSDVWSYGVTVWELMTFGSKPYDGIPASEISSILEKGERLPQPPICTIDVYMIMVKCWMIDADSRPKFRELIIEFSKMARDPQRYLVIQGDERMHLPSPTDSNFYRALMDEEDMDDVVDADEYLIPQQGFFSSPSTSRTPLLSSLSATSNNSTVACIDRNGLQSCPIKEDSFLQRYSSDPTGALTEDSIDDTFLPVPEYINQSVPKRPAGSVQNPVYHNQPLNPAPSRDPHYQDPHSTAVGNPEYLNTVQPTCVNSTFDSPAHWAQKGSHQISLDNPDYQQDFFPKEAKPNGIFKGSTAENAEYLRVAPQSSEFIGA
Chain of IGF1R (P08069 31-1367, species assumed): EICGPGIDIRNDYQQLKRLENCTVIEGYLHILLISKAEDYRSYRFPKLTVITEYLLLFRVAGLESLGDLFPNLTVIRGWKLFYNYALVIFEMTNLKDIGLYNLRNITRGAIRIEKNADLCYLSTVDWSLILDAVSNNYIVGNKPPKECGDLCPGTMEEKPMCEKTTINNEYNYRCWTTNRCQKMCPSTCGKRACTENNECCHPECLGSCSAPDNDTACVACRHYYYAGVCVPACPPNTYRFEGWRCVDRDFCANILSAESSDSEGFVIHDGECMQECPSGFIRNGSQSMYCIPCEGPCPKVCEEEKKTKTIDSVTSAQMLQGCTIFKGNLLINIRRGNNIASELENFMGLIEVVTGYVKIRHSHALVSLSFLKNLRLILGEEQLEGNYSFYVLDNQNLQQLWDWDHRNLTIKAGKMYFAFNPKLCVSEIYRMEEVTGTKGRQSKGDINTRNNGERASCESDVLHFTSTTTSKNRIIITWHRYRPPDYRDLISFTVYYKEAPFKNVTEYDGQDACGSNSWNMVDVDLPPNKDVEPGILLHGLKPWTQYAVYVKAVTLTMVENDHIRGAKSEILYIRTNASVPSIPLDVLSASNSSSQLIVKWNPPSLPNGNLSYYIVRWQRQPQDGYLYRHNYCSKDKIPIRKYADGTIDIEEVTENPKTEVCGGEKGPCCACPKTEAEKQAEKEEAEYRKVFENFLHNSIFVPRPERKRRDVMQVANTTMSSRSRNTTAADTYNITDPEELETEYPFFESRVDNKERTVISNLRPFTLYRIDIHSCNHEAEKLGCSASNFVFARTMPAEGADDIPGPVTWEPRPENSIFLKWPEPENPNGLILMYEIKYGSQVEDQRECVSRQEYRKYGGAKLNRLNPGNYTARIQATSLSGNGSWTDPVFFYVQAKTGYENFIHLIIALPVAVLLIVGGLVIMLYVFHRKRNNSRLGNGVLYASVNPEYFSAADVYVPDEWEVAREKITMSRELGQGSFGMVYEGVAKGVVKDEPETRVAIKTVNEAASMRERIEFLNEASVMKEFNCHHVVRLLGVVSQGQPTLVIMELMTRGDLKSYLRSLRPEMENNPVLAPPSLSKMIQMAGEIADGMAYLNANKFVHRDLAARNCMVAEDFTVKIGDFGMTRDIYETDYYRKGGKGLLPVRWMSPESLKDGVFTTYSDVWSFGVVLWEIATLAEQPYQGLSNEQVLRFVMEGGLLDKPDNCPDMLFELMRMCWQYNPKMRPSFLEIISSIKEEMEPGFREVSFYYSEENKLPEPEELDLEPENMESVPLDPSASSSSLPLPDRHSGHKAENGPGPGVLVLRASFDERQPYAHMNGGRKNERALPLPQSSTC
Chain of EGFRΔ19del/T790M/C797S (P00533 with tags, fused parts or gaps DEL746-750/T790M/C797S, form open): as the sequence (P00533 with tags, fused parts or gaps DEL746-750/T790M/C797S, form open) above

`CCc1cc(Nc2ncc(Br)c(Nc3ccc(-c4cccc(C#N)c4)cc3P(C)(C)=O)n2)c(OC)cc1N1CCC(N2CCN(C)CC2)CC1` [Compound 5, 4′-((5-Bromo-2-((5-ethyl-2-methoxy-4-(4-(4-methylpiperazin-1-yl)piperidin-1-yl)phenyl)amino)pyrimidin-4-yl)amino)-3′-(dimethylphosphineoxide)-[1,1′-diphenyl]-3-carbonitrile]: the IC50 – broadly, the concentration that inhibits the measured activity by half – at EGFR WT is 12.5 nM; with A431 (Homo sapiens, A-431, 72 h), over 10000 nM; at IGF1R it was 117 nM; on EGFRΔ19del/T790M/C797S it was 0.4 nM. Further, in experiment [1], the GI50 was 18.7 nM.

For `CCc1cc(Nc2ncc(Br)c(Nc3ccc(-c4ccc(F)cc4F)cc3P(C)(C)=O)n2)c(OC)cc1N1CCC(N2CCN(C)CC2)CC1` [Compound 6, (4-((5-Bromo-2-((5-ethyl-2-methoxy-4-(4-(4-methylpiperazin-1-yl)piperidin-1-yl)phenyl)amino)pyrimidin-4-yl)amino)-2′,4′-difluoro-[1,1′-biphenyl]-3-yl)dimethylphosphine oxide], the IC50 against EGFR WT was 16.7 nM; in the experiment on A431 (Homo sapiens, A-431, 72 h), over 10000 nM; on IGF1R it was 147 nM; on EGFRΔ19del/T790M/C797S, 0.9 nM. For the same compound, the GI50 in experiment [1] turned out to be 21.4 nM.

In the case of `CCc1cc(Nc2ncc(Br)c(Nc3ccc(-c4nn(C)c5ncccc45)cc3P(C)(C)=O)n2)c(OC)cc1N1CCC(N2CCN(C)CC2)CC1` [Compound 9, (2-((5-Bromo-2-((5-ethyl-2-methoxy-4-(4-(4-methylpiperazin-1-yl)piperidin-1-yl)phenyl)amino)pyrimidin-4-yl)amino)-5-(1-methyl-1H-pyrazol[3,4-b]pyridin-3-yl)phenyl)dimethylphosphine oxide], the IC50 at EGFR WT was 63.4 nM; in the experiment on A431 (Homo sapiens, A-431, 72 h), 1450 nM; on IGF1R, 826 nM; against EGFRΔ19del/T790M/C797S it was 0.4 nM. In experiment [1], the GI50 was determined as 23.1 nM.

Regarding `CCc1cc(Nc2ncc(Br)c(Nc3ccc(-c4ccc(C#N)cc4)cc3P(C)(C)=O)n2)c(OC)cc1N1CCC(N2CCN(C)CC2)CC1` [Compound 10], the concentration for half-maximal inhibition (IC50) is 19.5 nM on EGFR WT; 14300 nM with A431 (Homo sapiens, A-431, 72 h); 109 nM at IGF1R; 0.6 nM at EGFRΔ19del/T790M/C797S. Moreover, the GI50 in experiment [1] is 9.7 nM.

For `CCc1cc(Nc2ncc(Br)c(Nc3ccc(-c4cccc5c4COC5)cc3P(C)(C)=O)n2)c(OC)cc1N1CCC(N2CCN(C)CC2)CC1` [Compound 11, (2-((5-Bromo-2-((5-ethyl-2-methoxy-4-(4-(4-methylpiperazin-1-yl)piperidin-1-yl)phenyl)amino)pyrimidin-4-yl)amino)-5-(1,3-dihydroisobenzofuran-4-yl)phenyl)dimethylphosphine oxide], the IC50 on EGFR WT was determined as 28.6 nM; in the experiment on A431 (Homo sapiens, A-431, 72 h) it was 1020 nM; on IGF1R, 494 nM; on EGFRΔ19del/T790M/C797S, 0.6 nM. Also, the GI50 in experiment [1] was 18.9 nM.

In the case of `CCc1cc(Nc2ncc(Br)c(Nc3ccc(-c4nccs4)cc3P(C)(C)=O)n2)c(OC)cc1N1CCC(N2CCN(C)CC2)CC1` [Compound 12, (2-((5-Bromo-2-((5-ethyl-2-methoxy-4-(4-(4-methylpiperazin-1-yl)piperidin-1-yl)phenyl)amino)pyrimidin-4-yl)amino)-5-(thiazol-2-yl)phenyl)dimethylphosphine oxide], the IC50 against EGFR WT is 13 nM; in the experiment with A431 (Homo sapiens, A-431, 72 h) it was 989 nM; at IGF1R it was 310 nM; against EGFRΔ19del/T790M/C797S, 1.1 nM. For the same compound, the GI50 in experiment [1] stood at 10.7 nM.

As for `CCc1cc(Nc2ncc(Br)c(Nc3ccc(-c4cncc(OC)n4)cc3P(C)(C)=O)n2)c(OC)cc1N1CCC(N2CCN(C)CC2)CC1` [Compound 13], the IC50 against EGFR WT was determined as 31.1 nM; in the experiment with A431 (Homo sapiens, A-431, 72 h), 1680 nM; on IGF1R it was 182 nM; against EGFRΔ19del/T790M/C797S it was 0.4 nM. Moreover, in experiment [1], the GI50 came to 40.5 nM.

For `CCc1cc(Nc2ncc(Cl)c(Nc3ccc(-c4cscn4)cc3P(C)(C)=O)n2)c(OC)cc1N1CCC(N2CCN(C)CC2)CC1` [Compound 14, (2-((5-Chloro-2-((5-ethyl-2-methoxy-4-(4-(4-methylpiperazin-1-yl)piperidin-1-yl)phenyl)amino)pyrimidin-4-yl)amino)-5-(thiazol-4-yl)phenyl)dimethylphosphine oxide], the concentration for half-maximal inhibition (IC50) came to 13.9 nM on EGFR WT; 769 nM with A431 (Homo sapiens, A-431, 72 h); 149 nM at IGF1R; 0.4 nM at EGFRΔ19del/T790M/C797S. In addition, the GI50 in experiment [1] worked out at 14.5 nM.

Regarding `CCc1cc(Nc2ncc(Cl)c(Nc3ccc(-c4ccc5ocnc5c4)cc3P(C)(C)=O)n2)c(OC)cc1N1CCC(N2CCN(C)CC2)CC1` [Compound 17, (5-(Benzo[d]oxazol-5-yl)-2-((5-chloro-2-((5-ethyl-2-methoxy-4-(4-(4-methylpiperazin-1-yl)piperidin-1-yl)phenyl)amino)pyrimidin-4-yl)amino)phenyl)dimethylphosphine oxide], the IC50 is 20.1 nM against EGFR WT; 2200 nM in the experiment with A431 (Homo sapiens, A-431, 72 h); 363 nM at IGF1R; 0.7 nM against EGFRΔ19del/T790M/C797S. The GI50 in experiment [1] is 30 nM.

For `CCc1cc(Nc2ncc(Cl)c(Nc3ccc(-c4ncc(F)cn4)cc3P(C)(C)=O)n2)c(OC)cc1N1CCC(N2CCN(C)CC2)CC1` [Compound 18, (2-((5-Chloro-2-((5-ethyl-2-methoxy-4-(4-(4-methylpiperazin-1-yl)piperidin-1-yl)phenyl)amino)pyrimidin-4-yl)amino)-5-(5-fluoropyrimidin-2-yl)phenyl)dimethylphosphine oxide], the IC50 on EGFR WT worked out at 20.3 nM; in the experiment on A431 (Homo sapiens, A-431, 72 h) it was 1270 nM; on IGF1R it was 126 nM; at EGFRΔ19del/T790M/C797S, 0.7 nM. In experiment [1], the GI50 is 13.2 nM.

With `CCc1cc(Nc2ncc(Br)c(Nc3ccc(-c4cnn(C)n4)c(F)c3P(C)(C)=O)n2)c(OC)cc1N1CCC(N2CCN(C)CC2)CC1` [Compound 84, (6-((5-Bromo-2-((5-ethyl-2-methoxy-4-(4-(4-methylpiperazin-1-yl)piperidin-1-yl)phenyl)amino)pyrimidin-4-yl)amino)-2-fluoro-3-(2-methyl-2H-1,2,3-triazol-4-yl)phenyl)dimethylphosphine oxide], the GI50 in experiment [1] stood at 5.8 nM. Moreover, the half-inhibitory concentration (IC50) worked out at 1210 nM with A431, 54.9 nM on IGF1R and 0.1 nM against EGFRΔ19del/T790M/C797S.
